The values that follow come from patent US5053418A, “Antiprotozoal agents” (Burroughs Wellcome Co., priority 1983, dated 1991).

One experiment concerns P.falciparum. The experiment is described as follows: In vitro activity against P.falciparum: inhibition of 3H-adenosine/3H-hypoxanthine incorporation (modified Desjardins). The experiment is classed as cell-based. The conditions noted are these: for ED50 for Clopidol (4-pyridinol) / ED50 for naphthoquinone: 2580 min; for inhibition at 0.625 µg/mL: 0.625 mg/L; for inhibition at 1.25 µg/mL: 1.25 mg/L; for inhibition at 6.25 pg/mL: 0.00000625 mg/L; for inhibition at 12.5 pg/mL: 0.0000125 mg/L. How it is done: Each of the two compounds to be tested were dissolved in ethanol at a concentration of 10 mg/L and serially diluted with RPMI 1640 medium and 10% (v/v) human plasma in microtitration plates. P.falciparum-parasitised and fresh blood cells were added together with ^3 H-adenosine or ^3 H-hypoxanthinein RPMI 1640 medium and 10% human plasma. The cultures were then incubated at 37° C. for 43 hours, harvested and the particulate contents collected on glass fibre filter papers which were washed copiously with water using a Cooke Microtiter System (Dynatech Labs. Europe); the filter papers were dried and the radioactivity measured using a scintillation counter. Infected, untreated and uninfected cultures were included as controls. Percent inhibition was correlated with dose to provide an IC50 for each drug alone.
For subsequent combination experiments the individual drug solutions and mixtures thereof were serially diluted.
By the method of Example 1 the effect of a number of naphthoquinone/clopidol (4-pyridinol) combinations on P.falciparum in vitro were determined.

The next experiment has as its system P.yoelii. The experiment is described as follows: In vivo effect on P.yoelii in mice (inhibition of parasitaemia). How it is done: The naphthoquinone and the pyridinol were each suspended in 0.25% (w/v) celacol in water by milling for 16-24 hours at 26° C. The suspensions were subsequently serially diluted with 0.25% (w/v) celacol in water. At time 0, 0.1 ml of a suspension of 10^7 P.yoelii-parasitised red blood cells/ml of phosphate buffered saline were injected intravenously into 15-20 g mice through a tail vein. Groups of 5 mice per treatment were dosed orally at times 6, 22, 30, 46, 54, 70 and 78 hours with 0.2 ml of the drug suspension. Tail-blood smears were taken at 96 hours, stained with Giemsa and the percentage of red blood cells infected determined and compared to untreated, infected controls. Percent inhibition was correlated with dose to provide ED50 values for each drug alone. In subsequent experiments dilutions of the two drugs, alone and in combination were used, and the percentage inhibition of parasitaemia and ED50 values (of each drug at fixed concentrations of the other) were determined. The results are shown respectively in Tables V and VI. A number of combinations of clopidol (4-pyridinol) and naphthoquinones were assayed and compared with each drug alone for their antimalarial effect against P.yoelii in vivo by the method of Example 4.

Where [1] appears, read: Plasmodium falciparum, naphthoquinone alone.
The mark [2] stands for this setting: Plasmodium falciparum, 4-pyridinol analogue alone.

For `Cc1nc(C)c(Cl)c(O)c1Cl` [Clopidol, 3,5-dichloro-2,6-dimethyl-4-pyridinol, reference compound], in the experiment with P.falciparum (Plasmodium falciparum, 4-pyridinol alone, 0.80 mg/L), the inhibition at 0.8 µg/mL was determined as 44%. In addition, the inhibition at 1.6 µg/mL in the experiment with P.falciparum (Plasmodium falciparum, 4-pyridinol alone, 1.6 mg/L) was 55%. Moreover, the inhibition at 3.2 µg/mL with P.falciparum (Plasmodium falciparum, 4-pyridinol alone, 3.2 mg/L) came to 74%. For the same compound, the “% inhibition” value in the experiment on P.falciparum (clopidol (4-pyridinol) alone, 0.10 mg/L, listed as 4-pyridinol) was 24%; in the experiment with P.falciparum (clopidol (4-pyridinol) alone, 0.20 mg/L, listed as 4-pyridinol), 18%; with P.falciparum (clopidol (4-pyridinol) alone, 0.40 mg/L, listed as 4-pyridinol), 22%. The “ED50 for Clopidol (4-pyridinol)” value is given as 1.18 (1.44 to 0.980) mg/L in the experiment with P.falciparum (fixed naphthoquinone 0.0 mg/L (alone)); 1.63 mg/L with P.falciparum (fixed naphthoquinone 0.00781 mg/L); 0.128 mg/L in the experiment with P.falciparum (fixed naphthoquinone 0.0156 mg/L); 2.57 mg/L in the experiment on P.falciparum (fixed naphthoquinone 0.0313 mg/L); 1.03 (14.2 to 0.405) mg/L in the experiment with P.falciparum (fixed naphthoquinone 0.0625 mg/L); 0.578 mg/L in the experiment with P.falciparum (fixed naphthoquinone 0.125 mg/L). The “ED50 for Clopidol (4-pyridinol)” value in the experiment with P.falciparum (fixed naphthoquinone 0.250 mg/L) is 0.074 mg/L; with P.falciparum (fixed naphthoquinone 0.500 mg/L), 0.052 mg/L; in the experiment with P.falciparum (fixed naphthoquinone 1.00 mg/L), 0.0092 mg/L; in the experiment with P.falciparum (fixed naphthoquinone 2.00 mg/L), 0.00097 mg/L; in the experiment on P.falciparum (fixed naphthoquinone 4.00 mg/L) it was 0.00012 mg/L; with P.yoelii (fixed naphthoquinone 0.000 (alone)), 22.5 (27.6 to 19.4) mg/Kg/dose. Besides, the “ED50 for Clopidol (4-pyridinol)” value is 13.8 (21.5 to 10.7) mg/Kg/dose in the experiment with P.yoelii (fixed naphthoquinone 0.019), 5.14 (6.22 to 4.23) mg/Kg/dose in the experiment on P.yoelii (fixed naphthoquinone 0.0375), 1.87 (2.45 to 1.30) mg/Kg/dose in the experiment with P.yoelii (fixed naphthoquinone 0.075) and 0.522 (0.946 to 0.0356) mg/Kg/dose in the experiment on P.yoelii (fixed naphthoquinone 0.15). The inhibition in vivo at 1.9 mg/kg with P.yoelii (Plasmodium yoelii, po, 96 h, clopidol alone, 1.9 mg/Kg/dose, 7 doses) is 6%. The inhibition in vivo at 2.5 mg/kg in the experiment with P.yoelii (Plasmodium yoelii, po, 96 h, clopidol alone, 2.5 mg/Kg × 7) was determined as 0%. Further, the inhibition in vivo at 3.7 mg/kg in the experiment on P.yoelii (Plasmodium yoelii, po, 96 h, clopidol alone, 3.7 mg/Kg/dose, 7 doses) worked out at 17%. For the same compound, in the experiment on P.yoelii (Plasmodium yoelii, po, 96 h, clopidol alone, 7.5 mg/Kg/dose, 7 doses), the inhibition in vivo at 7.5 mg/kg was found to be 13%. Besides, the inhibition in vivo at 13 mg/kg in the experiment with P.yoelii (Plasmodium yoelii, po, 96 h, clopidol alone, 13 mg/Kg × 7) is 5%. Also, in the experiment with P.yoelii (Plasmodium yoelii, po, 96 h, clopidol alone, 15 mg/Kg/dose, 7 doses), the inhibition in vivo at 15 mg/kg was determined as 34%. Also, in the experiment with P.yoelii (Plasmodium yoelii, po, 96 h, clopidol alone, 30 mg/Kg/dose, 7 doses), the inhibition in vivo at 30 mg/kg was determined as 61%.

Take `O=C1C(O)=C(C2CCCC2)C(=O)c2ccccc21`: in the experiment with P.falciparum (setting [1]), the inhibition at 0.625 µg/mL was found to be 0% and the inhibition at 1.25 µg/mL was 2%.

Regarding `Cc1nc(C)c(Br)c(O)c1Br` [X = Br, R^3 = Me, 3,5-dibromo-2,6-dimethyl-4-pyridinol], in the experiment with P.falciparum (Plasmodium falciparum, 4-pyridinol analogue alone, 0.125 mg/L), the inhibition at 0.125 µg/mL amounted to 2%. Moreover, the inhibition at 0.25 µg/mL in the experiment on P.falciparum (Plasmodium falciparum, 4-pyridinol analogue alone, 0.25 mg/L) is 14%.

Take `CC(C)(C)C1CCC(C2=C(Cl)C(=O)c3ccccc3C2=O)CC1` (centres unmarked) [2-(4-t-butylcyclohexyl)-3-chloro-1,4-naphthoquinone] [listing 1 of 2 here]: the ED50 for naphthoquinone with P.falciparum (fixed clopidol 0.000 mg/L (alone)) stood at 0.851 µg/mL; in the experiment on P.falciparum (fixed clopidol 0.00625 mg/L) it was 0.699 µg/mL; in the experiment with P.falciparum (fixed clopidol 0.0125 mg/L), 0.401 µg/mL; in the experiment on P.falciparum (fixed clopidol 0.0250 mg/L) it was 0.478 µg/mL; in the experiment with P.falciparum (fixed clopidol 0.0500 mg/L) it was 0.447 µg/mL; with P.falciparum (fixed clopidol 0.100 mg/L), 0.287 µg/mL. In addition, the ED50 for naphthoquinone in the experiment with P.falciparum (fixed clopidol 0.200 mg/L) was 0.198 µg/mL; with P.falciparum (fixed clopidol 0.400 mg/L), 0.155 µg/mL; in the experiment on P.falciparum (fixed clopidol 0.800 mg/L) it was 0.0801 µg/mL; with P.falciparum (fixed clopidol 1.60 mg/L), 0.0303 µg/mL; in the experiment on P.falciparum (fixed clopidol 3.20 mg/L), 0.0075 µg/mL.

Turning to `Cc1ccc(C2CCC(C3=C(O)C(=O)c4ccccc4C3=O)CC2)cc1C` (centres unmarked), the inhibition at 0.000125 µg/mL with P.falciparum (Plasmodium falciparum, naphthoquinone alone, 0.000125 mg/L) was determined as 15%. Also, in the experiment with P.falciparum (Plasmodium falciparum, naphthoquinone alone, 0.00025 mg/L), the inhibition at 0.00025 µg/mL was found to be 30%.

With `CCCc1nc(CCC)c(Br)c(O)c1Br` [X = Br, R^3 = Pr, 3,5-dibromo-2,6-dipropyl-4-pyridinol], the inhibition at 3.125 µg/mL with P.falciparum (Plasmodium falciparum, 4-pyridinol analogue alone, 3.125 mg/L) came out at 9%. The inhibition at 6.25 µg/mL in the experiment with P.falciparum (Plasmodium falciparum, 4-pyridinol analogue alone, 6.25 mg/L) was 15%.

For the compound `CC(C)(C)C1CCC(C2=C(Cl)C(=O)c3ccccc3C2=O)CC1` (centres unmarked) [drawing 6, 2-(4-t-butylcyclohexyl)-3-chloro-1,4-naphthoquinone], the “% inhibition” value in the experiment with P.falciparum (naphthoquinone alone, 0.125 mg/L) stood at 14%; with P.falciparum (naphthoquinone alone, 0.25 mg/L), 17%.

`CCCc1nc(CCC)c(Cl)c(O)c1Cl` [X = Cl, R^3 = Pr, 3,5-dichloro-2,6-dipropyl-4-pyridinol]: in the experiment on P.falciparum (setting [2]), the inhibition at 0.625 µg/mL is 12% and the inhibition at 1.25 µg/mL came out at 24%.

For the compound `CCCCCCCCCCCCCC1=C(O)C(=O)c2ccccc2C1=O` [(CH2)12 Me], the inhibition at 0.0078 µg/mL in the experiment with P.falciparum (Plasmodium falciparum, naphthoquinone alone, 0.0078 mg/L) is 4%. The inhibition at 0.0156 µg/mL in the experiment on P.falciparum (Plasmodium falciparum, naphthoquinone alone, 0.0156 mg/L) came out at 10%.

For `CC(C)(C)C1CCCC(C2=C(O)C(=O)c3ccccc3C2=O)C1` (centres unmarked), in the experiment on P.falciparum (Plasmodium falciparum, naphthoquinone alone, 0.0500 mg/L), the inhibition at 0.05 µg/mL was determined as 8%. Also, the inhibition at 0.1 µg/mL in the experiment with P.falciparum (Plasmodium falciparum, naphthoquinone alone, 0.100 mg/L) amounted to 24%.

For the compound `CC(C)(C)C1CCC(C2=C(Cl)C(=O)c3ccccc3C2=O)CC1` (centres unmarked) [2-(4-t-butylcyclohexyl)-3-chloro-1,4-naphthoquinone] [listing 2 of 2 here], in the experiment on P.falciparum (Plasmodium falciparum, naphthoquinone alone, 0.0625 mg/L), the inhibition at 0.0625 µg/mL stood at 18%. Further, the inhibition at 0.125 µg/mL in the experiment with P.falciparum (Plasmodium falciparum, naphthoquinone alone, 0.125 mg/L) worked out at 14%. In the experiment with P.falciparum (Plasmodium falciparum, naphthoquinone alone, 0.25 mg/L), the inhibition at 0.25 µg/mL was 17%. In the experiment with P.falciparum (Plasmodium falciparum, naphthoquinone alone, 0.50 mg/L), the inhibition at 0.5 µg/mL came to 31%. Moreover, the inhibition at 1 µg/mL in the experiment with P.falciparum (Plasmodium falciparum, naphthoquinone alone, 1.0 mg/L) was determined as 55%. The inhibition at 2 µg/mL in the experiment with P.falciparum (Plasmodium falciparum, naphthoquinone alone, 2.0 mg/L) was found to be 75%.

As for `CC(C)(C)C1CCC(C2=C(O)C(=O)c3ccccc3C2=O)CC1` (centres unmarked) [drawing 10], in the experiment on P.falciparum (setting [1]), the inhibition at 6.25 pg/mL came out at 17% and the inhibition at 12.5 pg/mL was 13%.

As for `CCC(C)(C)C1CCC(C2=C(O)C(=O)c3ccccc3C2=O)CC1` (centres unmarked), in the experiment with P.falciparum (setting [1]), the inhibition at 6.25 pg/mL turned out to be 31% and the inhibition at 12.5 pg/mL was 51%.

`O=C1C(O)=C(C2CCC(C3CCCCC3)CC2)C(=O)c2ccccc21` (centres unmarked) [drawing 17, 2-(4-cyclohexylcyclohexyl)-3-hydroxy-1,4-naphthoquinone]: the inhibition in vivo at 0.075 mg/kg with P.yoelii (Plasmodium yoelii, po, 96 h, naphthoquinone alone, 0.075 mg/Kg × 7) was determined as 17%. Further, the inhibition in vivo at 0.15 mg/kg in the experiment on P.yoelii (Plasmodium yoelii, po, 96 h, naphthoquinone alone, 0.15 mg/Kg × 7) amounted to 16%. The “% inhibition of parasitaemia (combination)” value in the experiment on P.yoelii (naphthoquinone 0.075 + clopidol 1.9 mg/Kg × 7) turned out to be 45%; with P.yoelii (naphthoquinone 0.075 + clopidol 3.75 mg/Kg × 7) it was 69%; in the experiment on P.yoelii (naphthoquinone 0.15 + clopidol 1.9 mg/Kg × 7), 80%; in the experiment with P.yoelii (naphthoquinone 0.15 + clopidol 3.75 mg/Kg × 7), 92%.

Take `CC(C)(C)C1CCC(CC2=C(O)C(=O)c3ccccc3C2=O)CC1` (centres unmarked): the inhibition in vivo at 0.5 mg/kg in the experiment with P.yoelii (Plasmodium yoelii, po, 96 h, naphthoquinone alone, 0.50 mg/Kg × 7) came to 10%. In addition, the inhibition in vivo at 1 mg/kg with P.yoelii (Plasmodium yoelii, po, 96 h, naphthoquinone alone, 1.0 mg/Kg × 7) turned out to be 19%. Besides, the “% inhibition of parasitaemia (combination)” value with P.yoelii (naphthoquinone 0.50 + clopidol 1.4 mg/Kg × 7) was determined as 17%; in the experiment on P.yoelii (naphthoquinone 0.50 + clopidol 4.3 mg/Kg × 7), 61%; in the experiment on P.yoelii (naphthoquinone 1.0 + clopidol 1.4 mg/Kg × 7) it was 52%; in the experiment on P.yoelii (naphthoquinone 1.0 + clopidol 4.3 mg/Kg × 7), 93%.

Regarding `CC(=O)OC1=C(C2CCC(C)(C)CC2)C(=O)c2ccccc2C1=O`, the inhibition at 0.00075 µg/mL with P.falciparum (Plasmodium falciparum, naphthoquinone alone, 0.000750 mg/L) came to 0%. Moreover, the inhibition at 0.0015 µg/mL in the experiment on P.falciparum (Plasmodium falciparum, naphthoquinone alone, 0.00150 mg/L) worked out at 0%.

For orientation: inhibition means how much of the control response was suppressed. By % inhibition is commonly meant the share of the control response that was lost under treatment. By inhibition in vivo is commonly meant the change of the read-out against control, counted positive when it falls.
